Test system: 327498-153-R-J2-PDC multicell spheroid viability
Assay: Anticancer human tumor 327498-153-R-J2-PDC patient-derived uterine carcinosarcoma cell line growth inhibition [IpAb]
Settings: for IC50: curve of first compound; for viability, T/C: stronger effect = lower value
Outline: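 Multi-cell spheroids of 60% tumour cells, 25% HUVEC and 15% MSC in ultra-low-attachment U-bottom wells, treated with agents combined with ipatasertib or abemaciclib. Half-log ranges top out near clinical Cmax, or 10 microM when Cmax is unknown.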

[1] = second compound 0.01 µM, first compound 0.00949 µM
[2] = second compound 0.01 µM, first compound 0.03 µM
[3] = second compound 0.01 µM, first compound 0.0949 µM
[4] = second compound 0.01 µM, first compound 0.3 µM
[5] = second compound 0.0316 µM, first compound 0.00949 µM
[6] = second compound 0.0316 µM, first compound 0.03 µM
[7] = second compound 0.0316 µM, first compound 0.0949 µM
[8] = second compound 0.0316 µM, first compound 0.3 µM
[9] = second compound 0.1 µM, first compound 0.00949 µM
[10] = second compound 0.1 µM, first compound 0.03 µM
[11] = second compound 0.1 µM, first compound 0.0949 µM
[12] = second compound 0.1 µM, first compound 0.3 µM
[13] = second compound 0.316 µM, first compound 0.00949 µM
[14] = second compound 0.316 µM, first compound 0.03 µM
[15] = second compound 0.316 µM, first compound 0.0949 µM
[16] = second compound 0.316 µM, first compound 0.3 µM
[17] = second compound 1 µM, first compound 0.00949 µM
[18] = second compound 1 µM, first compound 0.03 µM
[19] = second compound 1 µM, first compound 0.0949 µM
[20] = second compound 1 µM, first compound 0.3 µM
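Note: spheroids exposed to agents for 7 days.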
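Throughout, for viability, T/C: 100% = DMSO vehicle control viability.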

What does the source list for `CC(=O)c1c(C)c2cnc(Nc3ccc(N4CCNCC4)cn3)nc2n(C2CCCC2)c1=O` + CCN1CCN(Cc2ccc(Nc3ncc(F)c(-c4cc(F)c5nc(C)n(C(C)C)c5c4)n3)nc2)CC1?
IC50 (second compound 0.01 µM): > 300 nM; IC50 (second compound 0.0316 µM): > 300 nM; IC50 (second compound 0.1 µM): > 300 nM; IC50 (second compound 0.316 µM): > 300 nM; IC50 (second compound 1 µM): > 300 nM; viability, T/C (second compound 0.01 µM, first compound 0.000949 µM): 91.3%; viability, T/C (second compound 0.01 µM, first compound 0.003 µM): 88.8%; viability, T/C [1]: 91%; viability, T/C [2]: 82.3%; viability, T/C [3]: 70.7%; viability, T/C [4]: 59.1%; viability, T/C (second compound 0.0316 µM, first compound 0.000949 µM): 77.1%; viability, T/C (second compound 0.0316 µM, first compound 0.003 µM): 74.8%; viability, T/C [5]: 72.8%; viability, T/C [6]: 65%; viability, T/C [7]: 59.9%; viability, T/C [8]: 54.8%; viability, T/C (second compound 0.1 µM, first compound 0.000949 µM): 66.2%; viability, T/C (second compound 0.1 µM, first compound 0.003 µM): 61%; viability, T/C [9]: 67.3%; viability, T/C [10]: 56.9%; viability, T/C [11]: 59.9%; viability, T/C [12]: 57.1%; viability, T/C (second compound 0.316 µM, first compound 0.000949 µM): 58.3%; viability, T/C (second compound 0.316 µM, first compound 0.003 µM): 58.2%; viability, T/C [13]: 62%; viability, T/C [14]: 54.6%; viability, T/C [15]: 56.4%; viability, T/C [16]: 60.6%; viability, T/C (second compound 1 µM, first compound 0.000949 µM): 55.5%; viability, T/C (second compound 1 µM, first compound 0.003 µM): 57.9%; viability, T/C [17]: 62%; viability, T/C [18]: 54.1%; viability, T/C [19]: 57.6%; viability, T/C [20]: 56.2%

Which results are given for `CC(C)(C)c1cnc(CSc2cnc(NC(=O)C3CCNCC3)s2)o1` + CCN1CCN(Cc2ccc(Nc3ncc(F)c(-c4cc(F)c5nc(C)n(C(C)C)c5c4)n3)nc2)CC1?
IC50 (second compound 0.01 µM): 142 nM; IC50 (second compound 0.0316 µM): 105 nM; IC50 (second compound 0.1 µM): 83.4 nM; IC50 (second compound 0.316 µM): 37.5 nM; IC50 (second compound 1 µM): 34.4 nM; viability, T/C [1]: 90%; viability, T/C [2]: 80.7%; viability, T/C [3]: 75.5%; viability, T/C [4]: 2.61%; viability, T/C (second compound 0.01 µM, first compound 0.949 µM): 0.63%; viability, T/C (second compound 0.01 µM, first compound 3 µM): 0.6%; viability, T/C [5]: 76.8%; viability, T/C [6]: 68.4%; viability, T/C [7]: 54.6%; viability, T/C [8]: 1.44%; viability, T/C (second compound 0.0316 µM, first compound 0.949 µM): 0.56%; viability, T/C (second compound 0.0316 µM, first compound 3 µM): 0.66%; viability, T/C [9]: 57.6%; viability, T/C [10]: 67.6%; viability, T/C [11]: 48.4%; viability, T/C [12]: 0.6%; viability, T/C (second compound 0.1 µM, first compound 0.949 µM): 0.61%; viability, T/C (second compound 0.1 µM, first compound 3 µM): 0.61%; viability, T/C [13]: 51.6%; viability, T/C [14]: 54.3%; viability, T/C [15]: 37.6%; viability, T/C [16]: 0.81%; viability, T/C (second compound 0.316 µM, first compound 0.949 µM): 0.6%; viability, T/C (second compound 0.316 µM, first compound 3 µM): 0.72%; viability, T/C [17]: 55.4%; viability, T/C [18]: 50.8%; viability, T/C [19]: 29.8%; viability, T/C [20]: 0.56%; viability, T/C (second compound 1 µM, first compound 0.949 µM): 1.62%; viability, T/C (second compound 1 µM, first compound 3 µM): 0.76%

From PubChem BioAssay AID2060341 (Molecular Pharmacology Branch, DTP, NCI, 2025)
